Read-outs that look alike come from different tables or passages of the source.
Assays:
PC3MM cells = assay: Cell Proliferation Assay (Cell Titer Glo), PC3MM; format: cell-based; conditions: read-out: CPEC50 PC3MM
Method: IV. Cell Proliferation Assay Protocol:
A2780, PC-3, or PC3MM cells were seeded at 1000 cells/well in 100 μL/well (10.000 cells/mL) growth media in 96-well plates. Cells were allowed to adhere to the bottom of plates for 3-5 hours in a 37° C. 5% CO2 incubator. Compounds were dissolved in DMSO and then transferred to the cell plates. The cells were incubated with the compounds for 3 days in a 37° C. 5% CO2 incubator. The growth medium containing the compounds was then removed from the cells and fresh medium was added, followed by 100 μL of Cell Titer Glo assay reagent (Promega). This mixture was shaken for 1 minute and then incubated without shaking for 10 minutes. Activity determinations for the compounds were made by detection on a Trilux Instrument.

PDK1 kinase = target: T1, PDK1 kinase (Homo sapiens, UniProt O15530); assay: PDK1 Kinase Alpha Screen Assay; format: biochemical
T1 sequence (O15530 1-556): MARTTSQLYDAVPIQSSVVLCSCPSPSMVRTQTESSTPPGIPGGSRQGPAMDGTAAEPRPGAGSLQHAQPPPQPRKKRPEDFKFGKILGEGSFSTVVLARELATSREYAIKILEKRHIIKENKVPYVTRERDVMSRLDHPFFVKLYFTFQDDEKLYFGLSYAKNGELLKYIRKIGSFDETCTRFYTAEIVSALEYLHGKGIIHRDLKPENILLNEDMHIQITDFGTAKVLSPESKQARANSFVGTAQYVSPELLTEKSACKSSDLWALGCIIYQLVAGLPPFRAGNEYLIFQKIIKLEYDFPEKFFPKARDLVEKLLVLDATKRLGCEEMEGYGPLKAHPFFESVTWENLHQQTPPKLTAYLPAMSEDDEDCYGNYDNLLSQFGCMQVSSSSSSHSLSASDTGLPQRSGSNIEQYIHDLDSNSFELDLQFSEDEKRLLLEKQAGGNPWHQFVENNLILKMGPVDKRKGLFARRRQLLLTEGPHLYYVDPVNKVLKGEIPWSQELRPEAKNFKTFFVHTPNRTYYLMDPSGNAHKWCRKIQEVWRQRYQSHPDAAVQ
Outline: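 Compound in DMSO added to PDK1-4 peptide; PDK1/ATP mix starts reaction (final 50 nM peptide, 10 uM ATP). Runs 3-18 hours, stopped with 90 mM EDTA buffer. Antibody/bead mix added, developed overnight at room temperature, then AlphaScreen signal read.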

[1] = Cell Proliferation Assay, PC3MM
[2] = PDK1 Kinase Alpha Screen Assay, read-out: PDK1 IC50
[3] = cell proliferation, PC3MM cells

Row | Structure (SMILES) | EC50 (PC3MM cells; [1]) [µM] | IC50 (PDK1 kinase; [2]) [µM] | other results
1 | Cn1cc(-c2cc(Nc3ncc4cc(-c5cn[nH]c5)cc(OC5CCNCC5)c4n3)cc(C(N)=O)c2)cn1 [Compound 665, 3-(1-methyl-1H-pyrazol-4-yl)-5-(8-(piperidin-4-yloxy)-6-(1H-pyrazol-4-yl)quinazolin-2-ylamino)benzamide] | 5 to 10 | < 5 | 
2 | CN1CCC(Oc2cc3nc(Nc4ccc5nc(C(F)(F)F)[nH]c5c4)ncc3cc2-c2nccs2)CC1 [Compound 681, 7-(1-methylpiperidin-4-yloxy)-6-(thiazol-2-yl)-N-(2-(trifluoromethyl)-1H-benzo[d]imidazol-6-yl)quinazolin-2-amine] | 5 to 10 | < 5 | 
3 | C#Cc1cc(OC2CCNCC2)c2nc(Nc3cc(NC(C)=O)cc(-c4cncnc4)c3)ncc2c1 [Compound 657, N-(3-(6-ethynyl-8-(piperidin-4-yloxy)quinazolin-2-ylamino)-5-(pyrimidin-5-yl)phenyl)acetamide] | < 5 | < 5 | 
4 | CN1CCC(Oc2ccc3cnc(Nc4ccc(N5CCOCC5)cc4)nc3c2)CC1 [Compound 655, 7-(1-methylpiperidin-4-yloxy)-N-(4-morpholinophenyl)quinazolin-2-amine] | < 5 | < 5 | 
5 | C#Cc1cc(OC2CCNCC2)c2nc(Nc3cc(C(N)=O)cc(-c4cnn(C)c4)c3)ncc2c1 [Compound 668, 3-(6-ethynyl-8-(piperidin-4-yloxy)quinazolin-2-ylamino)-5-(1-methyl-1H-pyrazol-4-yl)benzamide] | < 5 | < 5 | 
6 | COC(=O)Nc1cc(CN2CCOCC2)cc(Nc2ncc3ccc(-c4cnn(CCC(C)C)c4)c(OC)c3n2)c1 [Compound 1042, methyl 3-(7-(1-isopentyl-1H-pyrazol-4-yl)-8-methoxyquinazolin-2-ylamino)-5-(morpholinomethyl)phenylcarbamate] |  |  | EC50 (PC3MM cells; PC3MM cells): < 5 µM; IC50 (PDK1 kinase; head of the second part of Table 4: BV11261, read-out: PDK1 BV11261): < 5 µM
7 | NC(=O)c1cc(Nc2ncc3cc(-c4cnoc4)c(OC4CCNCC4)cc3n2)cc(N2CCOCC2)c1 [Compound 680, 3-(6-(isoxazol-4-yl)-7-(piperidin-4-yloxy)quinazolin-2-ylamino)-5-morpholinobenzamide] | 5 to 10 | < 5 | 
8 | CC(=O)N1CCC(Oc2cc3nc(Nc4ccc(N5CCOCC5)cc4)ncc3cc2-c2nccs2)CC1 [Compound 690, 1-(4-(2-(4-morpholinophenylamino)-6-(thiazol-2-yl)quinazolin-7-yloxy)piperidin-1-yl)ethanone] | < 5 | < 5 | 
9 | COc1cc(Nc2ncc3cc(-c4nccs4)c(OC4CCNCC4)cc3n2)cc(-n2nnnc2C)c1 [Compound 682, N-(3-methoxy-5 (5-methyl-1H-tetrazol-1-yl)phenyl)-7-(piperidin-4-yloxy)-6-(thiazol-2-yl)quinazolin-2-amine] | < 5 | < 5 | 
10 | NC(=O)c1cc(Nc2ncc3cc(-c4nccs4)cc(OC4CCNCC4)c3n2)cc(N2CCOCC2)c1 [Compound 672, 3-morpholino-5-(8-(piperidin-4-yloxy)-6-(thiazol-2-yl)quinazolin-2-ylamino)benzamide] | 5 to 10 | < 5 | 
11 | CN1CCC(Oc2cc3nc(Nc4ccc(N5CCOCC5)cc4)ncc3cc2-c2cn[nH]c2)CC1 [Compound 654, 7-(1-methylpiperidin-4-yloxy)-N-(4-morpholinophenyl)-6-(1H-pyrazol-4-yl)quinazolin-2-amine] | < 5 | < 5 | 
12 | COC(=O)Nc1cc(Nc2ncc3cc(-c4cn[nH]c4)c(OC4CCN(C)CC4)cc3n2)cc(-c2cn[nH]c2)c1 [Compound 676, methyl 3-(7-(1-methylpiperidin-4-yloxy)-6-(1H-pyrazol-4-yl)quinazolin-2-ylamino)-5-(1H-pyrazol-4-yl)phenylcarbamate] | < 5 | < 5 | 
13 | COC(=O)Nc1cc(Nc2ncc3cc(-c4cn[nH]c4)c(OC4CCNCC4)cc3n2)cc(-c2cn[nH]c2)c1 [Compound 661, methyl 3-(7-(piperidin-4-yloxy)-6-(1H-pyrazol-4-yl)quinazolin-2-ylamino)-5-(1H-pyrazol-4-yl)phenylcarbamate] | < 5 | < 5 | 
14 | CN1CCC(Oc2cc3nc(Nc4cc(C(N)=O)cc(N5CCOCC5)c4)ncc3cc2-c2cn[nH]c2)CC1 [Compound 677, 3-(7-(1-methylpiperidin-4-yloxy)-6-(1H-pyrazol-4-yl)quinazolin-2-ylamino)-5-morpholinobenzamide] | 5 to 10 | < 5 | 
15 | COC(=O)Nc1cc(Nc2ncc3cc(-c4nccs4)c(OC4CCNCC4)cc3n2)cc(-c2cn[nH]c2)c1 [Compound 662, methyl 3-(7-(piperidin-4-yloxy)-6-(thiazol-2-yl)quinazolin-2-ylamino)-5-(1H-pyrazol-4-yl)phenylcarbamate] | < 5 | < 5 | 
16 | NC(=O)c1cc(Nc2ncc3cc(-c4cn[nH]c4)c(OC4CCNCC4)cc3n2)cc(N2CCOCC2)c1 [Compound 674, 3-morpholino-5-(7-(piperidin-4-yloxy)-6-(1H-pyrazol-4-yl)quinazolin-2-ylamino)benzamide] | 5 to 10 | < 5 | 
17 | Cn1cc(-c2cc(Nc3ncc4cc(Br)cc(OC5CCNCC5)c4n3)cc(C(N)=O)c2)cn1 [Compound 671, 3-(6-bromo-8-(piperidin-4-yloxy)quinazolin-2-ylamino)-5-(1-methyl-1H-pyrazol-4-yl)benzamide] | < 5 | < 5 | 
18 | CS(=O)(=O)Nc1cccc(-c2ccc3cnc(Nc4ccc(S(N)(=O)=O)cc4)nc3c2)c1 [Compound 788, 4-(7-(3-(methylsulfonamido)phenyl)quinazolin-2-ylamino)benzenesulfonamide] |  | 10 to 25 | EC50 (PC3MM cells; [3]): 10 to 25 µM
19 | COC(=O)Nc1cc(CN2CCOCC2)cc(Nc2ncc3ccc(-c4cnn(CCC(C)C)c4)c(OC)c3n2)c1 [Compound 716, methyl 3-(7-(1-isopentyl-1H-pyrazol-4-yl)-8-methoxyquinazolin-2-ylamino)-5-(morpholinomethyl)phenyl carbamate] |  | < 5 | EC50 (PC3MM cells; Cell Proliferation Assay, PC3MM cells): < 5 µM
20 | NC(=O)c1cc(Nc2ncc3cc(-c4cn[nH]c4)cc(OC4CCNCC4)c3n2)cc(N2CCOCC2)c1 [Compound 663, 3-morpholino-5-(8-(piperidin-4-yloxy)-6-(1H-pyrazol-4-yl)quinazolin-2-ylamino)benzamide] | 5 to 10 | < 5 | 
21 | NC(=O)c1ccccc1-c1ccc2cnc(Nc3ccc(S(N)(=O)=O)cc3)nc2c1 [Compound 784, 2-(2-(4-sulfamoylphenylamino)quinazolin-7-yl)benzamide] |  | < 5 | EC50 (PC3MM cells; [3]): < 5 µM
22 | CN1CCC(Oc2cc3nc(Nc4cc(C(N)=O)cc(N5CCOCC5)c4)ncc3cc2-c2nccs2)CC1 [Compound 678, 3-(7-(1-methylpiperidin-4-yloxy)-6-(thiazol-2-yl)quinazolin-2-ylamino)-5-morpholinobenzamide] | < 5 | < 5 | 
23 | CC(=O)Nc1cc(Nc2ncc3ccc(OC4CCNCC4)cc3n2)cc(-c2cn[nH]c2)c1 [Compound 659, N-(3-(7-(piperidin-4-yloxy)quinazolin-2-ylamino)-5-(1H-pyrazol-4-yl)phenyl)acetamide] | < 5 | < 5 | 
24 | O=C(c1cc(Nc2ncc3cc(Br)cc(OC4CCNCC4)c3n2)cc(N2CCOCC2)c1)N1CCOCC1 [Compound 670, (3-(6-bromo-8-(piperidin-4-yloxy)quinazolin-2-ylamino)-5-morpholinophenyl)(morpholino) methanone] | < 5 | < 5 | 
